Like-named read-outs stand apart in the source and are kept apart here. Where a SMILES comes first, the peptide text is derived from it. Where no end group is shown, it is not given here. [ ]: non-standard residue; d: D form. Lys(Me3) = C[N+](C)(C)CCCC[C@H](N)C(=O)O; Lys(Me2) = CN(C)CCCC[C@H](N)C(=O)O
How the values were obtained:
[1] = biological target: T1, Corto chromodomain (GST-CortoCD) (Drosophila melanogaster, UniProt P41046); assay: Biacore real-time binding of peptides to immobilized GST-CortoCD; conditions: for kon: pH 7.4, Figure 5B, Biacore 3000, CM5 chip, peptides 1 to 10 µM in running buffer (10 mM Hepes pH7.4, 150 mM NaCl), 5 µL/min for 5 min, 1:1 Langmuir fit, read-out: CortoCD Ka
T1 construct: Over-expression of the Corto chromodomain (CortoCD); made in house
T1 sequence (P41046 127-203 limits assumed): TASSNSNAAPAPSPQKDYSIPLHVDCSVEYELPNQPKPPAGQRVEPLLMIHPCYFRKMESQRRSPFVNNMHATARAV
Experimental: (§1) To test whether Corto directly interacted with RPL12 lysine 3, we measured real-time binding between CortoCD and several RPL12 peptides using Biacore. GST-CortoCD and GST were immobilized on a CM5 sensor chip. Then, several RPL12 peptides [unmodified (RPL12um), methylated on lysine 3 (RPL12K3me2, RPL12K3me3), methylated on lysine 10 (RPL12K10me3) or lysine 3 mutated (RPL12K3A)] were assayed for their binding to GST-CortoCD or GST (Figure 5, Figure S3).
(D) Equilibrium dissociation constant (KD) calculated from CortoCD or HP1CD interacting with unmethylated or trimethylated histone H3 peptides. For H3K9me3, peptide concentration was increased from 0 to 1 µM. For RPL12 and H3K27me3 peptide concentration was increased from 0 to 10 µM. NB: no binding; nd: not determined.
(§2) GST or GST fusion proteins were dialyzed using a Slide-A-Lyser cassette (Thermo Scientific) in running buffer (10 mM Hepes pH7.4, 150 mM NaCl, 3 mM EDTA, 0.005% P20 surfactant) (GE Healthcare). Real-time protein interaction assays were performed using a Biacore 3000. Kinetics and binding tests were first performed on empty surfaces. Data presented here result from substraction of empty surface RU (1 to 5 depending on the experiment) from active surface RU. GST was covalently coupled to a CM5 sensor chip (GE Healthcare) via its N-terminal amino acid. The carboxymethylated dextran surface was activated by injecting a mixture of 0.2 M 1-ethyl-3-(3-dimethylaminopropyl) and 0.05 M N-hydroxysuccinimide. GST was immobilized on the chip by injecting a 30 µg.mL^−1 solution in NaAc pH5 buffer. GST-CortoCD and GST-HP1CD were immobilized by injecting a 100 µg.mL^−1 solution in the same buffer. Binding tests were performed by injecting peptides at 1 or 10 µM in running buffer at a flow rate of 5 µL.min^−1 during 5 min. Kinetic assays were performed only when the binding test was positive. […] To calculate association constants, peptides were diluted in series from 1 to 10 µM in running buffer and dilutions were injected sequentially at a flow rate of 5 µL.mn^−1 during 5 min. Dissociation kinetics were then run during 10 min to calculate dissociation constants. Between assays, the chip was regenerated with 10 mM glycine pH2.0. Kinetic constants were calculated with BIAevaluation Software (Biacore) using the Fit kinetic simultaneous ka/kd (1∶1 binding; Langmuir algorithm). RPL12 peptides were synthesized at the IFR83 Peptide synthesis facility (Table S13). Histone peptides were provided by Diagenode (H3K27me3: sp-069-050; H3K4me3: sp-003-050; H3K9me3: sp-056-050; H3K4/K9um: sp-999-050; H3K27um: sp-998-050).

[2] = biological target: HP1 chromodomain (GST-HP1CD) (Drosophila melanogaster, UniProt P05205); assay: Biacore real-time binding of peptides to immobilized GST-HP1CD
HP1 chromodomain (GST-HP1CD), sequence (P05205 24-82 limits assumed): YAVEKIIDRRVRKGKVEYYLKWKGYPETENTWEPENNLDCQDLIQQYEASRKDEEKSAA
Experimental: Figure 5 Preferential binding of Corto chromodomain to RPL12 trimethylated on lysine 3. (A) Biacore sensorgrams showing binding of either RPL12 unmethylated peptide (RPL12 um, left panel) or RPL12 peptide trimethylated on lysine 3 (RPL12K3me3, right panel) to CortoCD. Increasing concentrations of RPL12 um or RPL12K3me3 peptides were used [from 0 (light grey lines) to 10 µM (darker grey to black lines]. Binding (Y-axis, Response) is expressed in Resonance Units (RU) relative to time (X-axis). Note the response due to end of injection of the peptides at 300 s. (B) Kinetic parameters of interaction between CortoCD and RPL12 um, RPL12K3me2 or RPL12K3me3 peptides. Note that CortoCD interacts specifically with RPL12 trimethylated on lysine 3 (KD = 8 µM). (C) Equilibrium dissociation constant (KD) calculated for CortoCD or HP1CD in interaction with RPL12 um peptide, RPL12 methylated peptides, or RPL12K3A peptide. Note that CortoCD specifically binds to RPL12K3me3 (KD<100 µM). (D) Equilibrium dissociation constant (KD) calculated from CortoCD or HP1CD interacting with unmethylated or trimethylated histone H3 peptides. For H3K9me3, peptide concentration was increased from 0 to 1 µM. For RPL12 and H3K27me3 peptide concentration was increased from 0 to 10 µM. NB: no binding; nd: not determined. TEXT PRINTED IN THE PICTURE: (B) RpL12um: CortoCD Ka ( M^-1s^-1): 1.2; CortoCD Kd ( s^-1): 7.6.10^-4; CortoCD KD (μM): 624 | (B) RpL12K3me2: CortoCD Ka ( M^-1s^-1): 4.1; CortoCD Kd ( s^-1): 9.9.10^-4; CortoCD KD (μM): 238 | (B) RpL12K3me3: CortoCD Ka ( M^-1s^-1): 106; CortoCD Kd ( s^-1): 8.2.10^-4; CortoCD KD (μM): 8 | (C) RpL12um: CortoCD: 624; HP1CD: > 1000 | (C) RpL12K3me2: CortoCD: 238 | (C) RpL12K3me3: CortoCD: 8; HP1CD: 292 | (C) RpL12K10me3: CortoCD: NB; HP1CD: NB | (C) RpL12K3A: CortoCD: NB; HP1CD: NB | (D) H3K4me3: CortoCD: NB; HP1CD: NB | (D) H3K9me3: CortoCD: NB; HP1CD: 0.4 | (D) H3K27me3: CortoCD: NB; HP1CD: 0.7 | (D) H3um: CortoCD: NB; HP1CD: NB | (D) H3K27um: CortoCD: NB; HP1CD: NB DOUBTS OF THE COPYIST ABOUT THIS PICTURE: Panels C and D: the picture prints no measure or unit for the table values, so they are given with the row head only / Panel C, RpL12K3me2, HP1CD: the cell prints 'nd', which is not a result and is left out
To investigate whether RPL12K3me3 could bind to other chromodomains, we repeated these experiments using that of HP1 (HP1CD). GST-HP1CD was immobilized on the sensor chip and binding of either RPL12, RPL12K3me3, RPL12K10me3 or RPL12K3A was tested. None of these peptides specifically interacted with HP1CD (KD>200 µM) (Figure 5C, Figure S3). […] No binding of unmodified H3, H3K27me3, H3K9me3 or H3K4me3 peptides was observed (Figure 5D) while, as expected, the H3K9me3 peptide bound HP1CD with high affinity (KD = 0.4 µM).
GST or GST fusion proteins were dialyzed using a Slide-A-Lyser cassette (Thermo Scientific) in running buffer (10 mM Hepes pH7.4, 150 mM NaCl, 3 mM EDTA, 0.005% P20 surfactant) (GE Healthcare). Real-time protein interaction assays were performed using a Biacore 3000. Kinetics and binding tests were first performed on empty surfaces. Data presented here result from substraction of empty surface RU (1 to 5 depending on the experiment) from active surface RU. GST was covalently coupled to a CM5 sensor chip (GE Healthcare) via its N-terminal amino acid. The carboxymethylated dextran surface was activated by injecting a mixture of 0.2 M 1-ethyl-3-(3-dimethylaminopropyl) and 0.05 M N-hydroxysuccinimide. […]

[3] = biological target: T2, GST (Schistosoma japonicum, UniProt P08515); assay: Biacore real-time binding of peptides to immobilized GST (control surface); conditions: binding test, peptides at 1 or 10 µM
T2 construct: made in house
T2 sequence (P08515 whole entry): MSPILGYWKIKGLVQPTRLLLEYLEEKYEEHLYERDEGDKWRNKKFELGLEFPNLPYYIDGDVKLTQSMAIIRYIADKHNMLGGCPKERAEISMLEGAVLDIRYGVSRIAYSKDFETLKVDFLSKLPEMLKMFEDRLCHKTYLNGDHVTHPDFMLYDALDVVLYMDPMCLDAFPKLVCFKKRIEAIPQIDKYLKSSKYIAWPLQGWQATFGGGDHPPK
Experimental: as §1
as §2, with “RPL12 peptides were synthesized at the IFR83 Peptide synthesis facility (Table S13). Histone peptides were provided by Diagenode (H3K27me3: sp-069-050; H3K4me3: sp-003-050; H3K9me3: sp-056-050; H3K4/K9um: sp-999-050; H3K27um: sp-998-050).” left out

[4] = >200 µM = no specific interaction, read-out: KD for HP1CD

Compound: CC(C)C[C@H](NC(=O)[C@H](Cc1ccc(O)cc1)NC(=O)[C@@H](NC(=O)[C@H](CC(C)C)NC(=O)[C@H](CCCC[N+](C)(C)C)NC(=O)[C@@H](NC(=O)[C@H](CCC(=O)O)NC(=O)[C@@H](NC(=O)[C@@H]1CCCN1C(=O)[C@H](CC(=O)O)NC(=O)[C@H](Cc1ccccc1)NC(=O)[C@H](CCCCN)NC(=O)[C@@H]1CCCN1C(=O)[C@@H]1CCCN1)[C@@H](C)O)C(C)C)C(C)C)C(=O)N[C@@H](CCCNC(=N)N)C(=O)N[C@@H](CS)C(=O)N[C@H](C(=O)NCC(=O)NCC(=O)N[C@@H](CCC(=O)O)C(=O)N[C@H](C(=O)NCC(=O)N[C@@H](C)C(=O)O)C(C)C)C(C)C [RpL12K10me3] (H-PPKFDPTEV[Lys(Me3)]LVYLRCVGGEVGA-OH)
- Kd [1]: > 200 µM
- Kd [2, 4]: > 200 µM
- binding of RPL12 peptides to GST (in words) [3]: None of these peptides bound GST

Compound: CC(C)C[C@H](NC(=O)[C@H](Cc1ccc(O)cc1)NC(=O)[C@@H](NC(=O)[C@H](CC(C)C)NC(=O)[C@H](CCCCN)NC(=O)[C@@H](NC(=O)[C@H](CCC(=O)O)NC(=O)[C@@H](NC(=O)[C@@H]1CCCN1C(=O)[C@H](CC(=O)O)NC(=O)[C@H](Cc1ccccc1)NC(=O)[C@H](CCCC[N+](C)(C)C)NC(=O)[C@@H]1CCCN1C(=O)[C@@H]1CCCN1)[C@@H](C)O)C(C)C)C(C)C)C(=O)N[C@@H](CCCNC(=N)N)C(=O)N[C@@H](CS)C(=O)N[C@H](C(=O)NCC(=O)NCC(=O)N[C@@H](CCC(=O)O)C(=O)N[C@H](C(=O)NCC(=O)N[C@@H](C)C(=O)O)C(C)C)C(C)C [RpL12K3me3] (H-PP[Lys(Me3)]FDPTEVKLVYLRCVGGEVGA-OH)
- Kd [1]: 8 µM
- kon [1]: 106 M⁻¹ s⁻¹
- Kd [2, 4]: > 200 µM

Compound: CC(C)C[C@H](NC(=O)[C@H](Cc1ccc(O)cc1)NC(=O)[C@@H](NC(=O)[C@H](CC(C)C)NC(=O)[C@H](CCCCN)NC(=O)[C@@H](NC(=O)[C@H](CCC(=O)O)NC(=O)[C@@H](NC(=O)[C@@H]1CCCN1C(=O)[C@H](CC(=O)O)NC(=O)[C@H](Cc1ccccc1)NC(=O)[C@H](CCCCN(C)C)NC(=O)[C@@H]1CCCN1C(=O)[C@@H]1CCCN1)[C@@H](C)O)C(C)C)C(C)C)C(=O)N[C@@H](CCCNC(=N)N)C(=O)N[C@@H](CS)C(=O)N[C@H](C(=O)NCC(=O)NCC(=O)N[C@@H](CCC(=O)O)C(=O)N[C@H](C(=O)NCC(=O)N[C@@H](C)C(=O)O)C(C)C)C(C)C [RpL12K3me2] (H-PP[Lys(Me2)]FDPTEVKLVYLRCVGGEVGA-OH)
- Kd [1]: > 200 µM
- kon [1]: 4.1 M⁻¹ s⁻¹

Compound: PPKFDPTEVKLVYLRCVGGEVGA [RpL12um]
- Kd [1]: > 200 µM
- kon [1]: 1.2 M⁻¹ s⁻¹
- Kd [2, 4]: > 200 µM
- Kd ([2]; Figure 5C, RPL12 peptides 0 to 10 µM, NB = no binding, read-out: Equilibrium dissociation constant (KD), HP1CD): > 1000 µM
- binding of RPL12 peptides to GST (in words) [3]: None of these peptides bound GST

Compound: H-PPAFDPTEVKLVYLRCVGGEVGA-OH [RpL12K3A]
- Kd [1]: > 200 µM
- Kd [2, 4]: > 200 µM
- binding of RPL12 peptides to GST (in words) [3]: None of these peptides bound GST

Reference: publication PMC3469418, “New Partners in Regulation of Gene Expression: The Enhancer of Trithorax and Polycomb Corto Interacts with Methylated Ribosomal Protein L12 Via Its Chromodomain” (PLoS Genetics, 2012)
